In patent publication US20170035863A1 (UNIVERSITY OF LEEDS, priority 2014, published 2017):

Columns and labels:
thrombin = thrombin (Homo sapiens, UniProt P00734); experiment: Thrombin activity, chromogenic substrate S-2238 (IC50); format: biochemical
Protocol: Thrombin activity was measured using a chromogenic substrate S-2238 (Quadratec). […] Kinetic readings at 405 nm were monitored every 12 seconds for a total duration of 3 hours at 37° C. Gradients of initial rates were determined and employed to calculate IC50 values using Grafit software.

[1] = test system: human normal pool platelet poor plasma; experiment: Activated Partial Thromboplastin Time (aPTT) clotting assay; format: biochemical; settings: for Mean aPTT: platelet poor plasma, mean ± SEM
Protocol: The activated Partial Thromboplastin Time (aPTT) employed was the PTT Automate 5 reagent kit from Stago. The coagulometer (Start 4, Diagnostica Stago, Asnieres sur Seine Cedex, France) was preheated to 37° C. prior to starting any measurements. A sample of human normal pool platelet poor plasma (n=22) was defrosted at 37° C. from −80° C. […] Then 48.5 μL of PTT automate was added to the cuvette and left to incubate for 180 seconds at 37° C. in the coagulometer, after which 50 μL of 25 mM calcium chloride was immediately added to initiate clotting. At the end of the test, the time clotting times were recorded.
This method is known to the person skilled in the art.

[2] = test system: murine tail bleeding model; experiment: Murine tail bleeding time; format: in vivo, C57BL/6 male mice
From the text: (§1) The same animals employed for anticoagulant efficacy were subjected to tail bleeding immediately following the end of the efficacy experiments. Tails were cut with a scalpel at 2 mm diameter using a home-made device for measuring tail diameter. The tails were immediately suspended into lml warmed saline and the time taken to cessation of bleeding monitored (panel A). The collected saline/blood mix at the end of the experiments were frozen and subjected to haemoglobin determination (panel B).
as §1, with “1 ml” for “lml”, “monitored.” for “monitored (panel A). The collected saline/blood mix at the end of the experiments were frozen and subjected to haemoglobin determination (panel B).”

Molecule	IC50 (thrombin) [nM]	Mean aPTT ([1]; 0.11 nM, 3 min incubation) [s]	Mean aPTT ([1]; 0.44 nM) [s]	Mean aPTT ([1]; 0.88 nM) [s]	Mean aPTT ([1]; 1.75 nM) [s]	Mean aPTT ([1]; 3.50 nM) [s]	Mean aPTT ([1]; 7.00 nM) [s]	Mean aPTT ([1]; 14.00 nM) [s]	Mean aPTT ([1]; 28.00 nM) [s]	Mean aPTT ([1]; 56.00 nM) [s]	Mean aPTT ([1]; 112.00 nM) [s]	Mean aPTT ([1]; 224.00 nM) [s]	Mean aPTT ([1]; 448.00 nM) [s]	potency in aPTT, comparison ([1]; in plasma)	prolongation of bleeding time ([2]; 20 mg/kg, at the end of the experiment) [fold]	risk of bleeding ([2]; at doses achieving 50% inhibition of fibrin clot formation)	prolongation of bleeding time ([2]; at the dose required to achieve at least 50% inhibition of fibrin clot formation) [fold]
CC[C@H](C)[C@H](NC(=O)[C@H](C)NC(=O)[C@H](CCC(=O)O)NC(=O)[C@H](Cc1ccccc1)NC(=O)[C@H](CC(=O)O)NC(=O)[C@H](Cc1ccccc1)NC(=O)[C@@H]1CCCN1C(=O)[C@@H]1CCCN1C(=O)[C@H](C)NC(=O)[C@@H](NC(=O)[C@H](CCCCN)NC(=O)[C@H](Cc1c[nH]cn1)NC(=O)[C@H](CCSC)NC(=O)[C@H](CCCNC(=N)N)NC(=O)[C@@H]1CCCN1C(=O)[C@H](CCC(=O)O)NC(=O)[C@H](C)NC(=O)[C@@H](NC(=O)[C@@H](N)CC(=O)O)C(C)C)[C@@H](C)O)C(=O)N1CCC[C@H]1C(=O)N[C@@H](CCC(=O)O)C(=O)N[C@@H](CCC(=O)O)C(=O)N[C@@H](Cc1ccc(O)cc1)C(=O)N[C@@H](Cc1ccc(OS(=O)(=O)O)cc1)C(=O)N[C@@H](CC(C)C)C(=O)O [SYM-3491-SO3]	172 ± 6.5	32.03 ± 0.07	32.07 ± 0.03	31.83 ± 0.03	32.20 ± 0.15	32.33 ± 0.07	33.27 ± 0.27	35.33 ± 0.33	38.23 ± 0.48	44.17 ± 0.43	49.87 ± 0.20	60.33 ± 0.17	70.97 ± 0.69	slightly less than variegin	~2	increases risk of bleeding	~2
bivalirudin [reference compound]	–	32.03 ± 0.35	31.07 ± 0.09	31.20 ± 0.06	31.47 ± 0.37	32.43 ± 0.13	36.30 ± 0.20	40.27 ± 0.60	46.13 ± 1.25	53.97 ± 0.26	63.43 ± 2.32	79.50 ± 0.75	89.77 ± 3.99	–	–	–	–
